Data as given in article PMC7587356, “High-Throughput Screening for Inhibitors of the SARS-CoV-2 Protease Using a FRET-Biosensor” (Molecules, 2020).
Counter-ions that a name gives are not always drawn. Like-named read-outs stand apart in the source and are kept apart here.

Target: SARS-CoV-2 3CLpro (Severe acute respiratory syndrome coronavirus 2, UniProt P0DTD1)
Experiment: biochemical
Format: biochemical
Parameters: Replicate_1 / Replicate_2 / mean / mean (LOPAC_screen_w_protease): unit not given here
Settings: for inhibition at 5 µM: 4 h
[1] = sheet LOPAC_screen_w_protease, primary screen with protease, mean of two replicates, read-out: mean
[2] = sheet LOPAC_screen_w_protease, primary screen with protease, replicate 1, read-out: Replicate_1
[3] = sheet LOPAC_screen_w_protease, primary screen with protease, replicate 2, read-out: Replicate_2
[4] = sheet LOPAC_screen_w_protease, primary screen with protease, 5 µM, mean of two replicates
[5] = sheet LOPAC_screen_w_protease, primary screen with protease, 5 µM, replicate 1
[6] = sheet LOPAC_screen_w_protease, primary screen with protease, 5 µM, replicate 2
[7] = LOPAC1280 primary screen with protease, 5 µM compound, mean of the two replicates
[8] = LOPAC1280 primary screen with protease, 5 µM compound, replicate 1
[9] = LOPAC1280 primary screen with protease, 5 µM compound, replicate 2
[10] = sheet LOPAC_screen_w_protease, LOPAC1280 primary screen at 5 µM, with protease, mean of the two replicates
[11] = sheet LOPAC_screen_w_protease, LOPAC1280 primary screen at 5 µM, with protease, replicate 1
[12] = sheet LOPAC_screen_w_protease, LOPAC1280 primary screen at 5 µM, with protease, replicate 2
[13] = sheet LOPAC_screen_w_protease, LOPAC1280 primary screen with protease, 5 µM compound, mean of the two replicates
[14] = sheet LOPAC_screen_w_protease, LOPAC1280 primary screen with protease, 5 µM compound, replicate 1
[15] = sheet LOPAC_screen_w_protease, LOPAC1280 primary screen with protease, 5 µM compound, replicate 2
[16] = sheet LOPAC_screen_w_protease, LOPAC1280 at 5 µM, mean of two replicates, read-out: mean
[17] = sheet LOPAC_screen_w_protease, LOPAC1280 at 5 µM, replicate 1, read-out: Replicate_1
[18] = sheet LOPAC_screen_w_protease, LOPAC1280 at 5 µM, replicate 2, read-out: Replicate_2
[19] = read-out: Replicate_1 (LOPAC screen with protease)
[20] = read-out: Replicate_2 (LOPAC screen with protease)
[21] = read-out: mean (LOPAC screen with protease)
[22] = LOPAC1280 primary screen with protease, 5 µM compound, replicate 1, read-out: Replicate_1 (LOPAC_screen_w_protease)
[23] = LOPAC1280 primary screen with protease, 5 µM compound, replicate 2, read-out: Replicate_2 (LOPAC_screen_w_protease)
[24] = LOPAC1280 primary screen with protease, 5 µM compound, mean of two replicates
[25] = sheet LOPAC_screen_w_protease, primary screen with protease, compound at 5 µM, mean of two replicates, read-out: mean
[26] = sheet LOPAC_screen_w_protease, primary screen with protease, compound at 5 µM, replicate 1, read-out: Replicate_1
[27] = sheet LOPAC_screen_w_protease, primary screen with protease, compound at 5 µM, replicate 2, read-out: Replicate_2

## CC(C)(C)c1cc(/C=C(\C#N)C(N)=S)cc(C(C)(C)C)c1O [Tyrphostin AG 879]
Sheet LOPAC_screen_w_protease, LOPAC1280 primary screen with protease, 5 µM compound, mean of the two replicates, read-out: mean
  inhibition at 5 µM: 5.5%
Sheet LOPAC_screen_w_protease, LOPAC1280 primary screen with protease, 5 µM compound, replicate 1, read-out: Replicate_1
  inhibition at 5 µM: 5.93%
Sheet LOPAC_screen_w_protease, LOPAC1280 primary screen with protease, 5 µM compound, replicate 2, read-out: Replicate_2
  inhibition at 5 µM: 5.07%

## N=c1ccn2c(n1)O[C@H]1[C@H](O)[C@@H](CO)O[C@H]12 [Ancitabine hydrochloride]
[1]
  inhibition at 5 µM: 2.45%
[2]
  inhibition at 5 µM: 2.42%
[3]
  inhibition at 5 µM: 2.49%

## Br.NCc1cc(O)no1 [Muscimol hydrobromide]
[4]
  mean: 0.06352
[5]
  Replicate_1: 2.752
[6]
  Replicate_2: -2.625

## Cc1nc(N=Nc2ccc(C(=O)O)cc2)c(COP(=O)(O)O)c(C=O)c1O [MRS 2159]
[7]
  mean (LOPAC_screen_w_protease): 1.803
[8]
  Replicate_1 (LOPAC_screen_w_protease): 1.948
[9]
  Replicate_2 (LOPAC_screen_w_protease): 1.658

## Cn1cnc2c(NC3CCCC3)ncnc21 [N6-Cyclopentyl-9-methyladenine]
Sheet LOPAC_screen_w_protease, primary screen of LOPAC1280 at 5 µM with protease, mean of the two replicates
  mean: 3.328
Sheet LOPAC_screen_w_protease, primary screen of LOPAC1280 at 5 µM with protease, replicate 1
  Replicate_1: 3.176
Sheet LOPAC_screen_w_protease, primary screen of LOPAC1280 at 5 µM with protease, replicate 2
  Replicate_2: 3.4795

## CN(C)CCCN1c2ccccc2Sc2ccc(Cl)cc21 [Chlorpromazine hydrochloride]
read-out: Replicate_1
  inhibition at 5 µM: 0.794%
read-out: Replicate_2
  inhibition at 5 µM: 0.374%
read-out: mean
  inhibition at 5 µM: 0.584%

## CCCN1CCO[C@@H]2c3cc(O)ccc3OC[C@H]21.Cl [S(+)-PD 128,907 hydrochloride]
[10]
  mean: 0.4405
[11]
  Replicate_1: 0.5719
[12]
  Replicate_2: 0.3091

## O=C(O)c1cccnc1C(=O)O [Quinolinic acid]
Sheet LOPAC_screen_w_protease, LOPAC1280 primary screen at 5 µM, with protease, mean of the two replicates, read-out: mean
  inhibition at 5 µM: 0.58%
Sheet LOPAC_screen_w_protease, LOPAC1280 primary screen at 5 µM, with protease, replicate 1, read-out: Replicate_1
  inhibition at 5 µM: -0.228%
Sheet LOPAC_screen_w_protease, LOPAC1280 primary screen at 5 µM, with protease, replicate 2, read-out: Replicate_2
  inhibition at 5 µM: 1.39%

## Cc1[nH]c2ccc(O)cc2c1CCN.O=C(O)/C=C\C(=O)O [2-Methyl-5-hydroxytryptamine maleate]
[13]
  mean: 5.124
[14]
  Replicate_1: 4.629
[15]
  Replicate_2: 5.62

## NC(N)=NCc1cccc(I)c1.NC(N)=NCc1cccc(I)c1.O=S(=O)(O)O [m-Iodobenzylguanidine hemisulfate]
Sheet LOPAC_screen_w_protease, primary screen with protease, mean of two replicates
  mean: 2.496
Sheet LOPAC_screen_w_protease, primary screen with protease, replicate 1
  Replicate_1: 1.063
Sheet LOPAC_screen_w_protease, primary screen with protease, replicate 2
  Replicate_2: 3.929

## O=S(=O)(c1cccc2cnccc12)N1CCNCC1 [HA-100]
[10]
  mean: 0.7375
[11]
  Replicate_1: 1.4906
[12]
  Replicate_2: -0.01568

## COc1cc2ncnc(Nc3cccc(Cl)c3)c2cc1OC [Tyrphostin AG 1478]
[16]
  inhibition at 5 µM: 1.16%
[17]
  inhibition at 5 µM: 1.39%
[18]
  inhibition at 5 µM: 0.935%

## O=c1c2ccccc2[se]n1-c1ccccc1 [Ebselen, reference compound]
[19]
  inhibition at 5 µM: 105%
[20]
  inhibition at 5 µM: 102%
[21]
  inhibition at 5 µM: 103%

## C1CCc2nnnn2CC1 [Pentylenetetrazole]
[22]
  inhibition at 5 µM: 0.452%
[23]
  inhibition at 5 µM: 2.75%
[24]
  mean (LOPAC_screen_w_protease): 1.601

## CC(C)[N+]1(C)[C@@H]2CC[C@H]1C[C@@H](OC(=O)C(CO)c1ccccc1)C2 (some centres unmarked) [Ipratropium bromide]
[22]
  inhibition at 5 µM: 1.02%
[23]
  inhibition at 5 µM: 1.99%
[24]
  mean (LOPAC_screen_w_protease): 1.504

## CC1=C(C(=O)O)N2C(=O)[C@@H](NC(=O)[C@H](N)C3=CCC=CC3)[C@H]2SC1 [Cephradine]
[25]
  inhibition at 5 µM: 3.13%
[26]
  inhibition at 5 µM: 2.84%
[27]
  inhibition at 5 µM: 3.42%

## CC(C)(C)NC[C@H](O)COc1nsnc1N1CCOCC1.O=C(O)/C=C\C(=O)O [S(-)-Timolol maleate]
[4]
  mean: 0.01613
[5]
  Replicate_1: 1.756
[6]
  Replicate_2: -1.724

## NC(=O)CN1CCCC1=O [Piracetam]
Sheet LOPAC_screen_w_protease, primary screen of LOPAC1280 at 5 µM with protease, mean of the two replicates, read-out: mean
  inhibition at 5 µM: 3.49%
Sheet LOPAC_screen_w_protease, primary screen of LOPAC1280 at 5 µM with protease, replicate 1, read-out: Replicate_1
  inhibition at 5 µM: 5.61%
Sheet LOPAC_screen_w_protease, primary screen of LOPAC1280 at 5 µM with protease, replicate 2, read-out: Replicate_2
  inhibition at 5 µM: 1.37%

## CC(C)NCC(O)c1cc(O)cc(O)c1.CC(C)NCC(O)c1cc(O)cc(O)c1.O=S(=O)(O)O (centres unmarked) [Metaproterenol hemisulfate]
[13]
  mean: 4.319
[14]
  Replicate_1: 2.0521
[15]
  Replicate_2: 6.586

## S=C=Nc1ccc2oc(C3=NCCN3)cc2c1 [BU99006]
  Replicate_1: 4.032
  Replicate_2: 1.831
  mean: 2.931

## Nc1nc2[nH]c(=O)cnc2c(=O)[nH]1 [Isoxanthopterin]
[1]
  inhibition at 5 µM: 2.42%
[2]
  inhibition at 5 µM: 3.73%
[3]
  inhibition at 5 µM: 1.11%

## O=c1[nH]c2ccccc2n1C1CCN(CCCC(c2ccc(F)cc2)c2ccc(F)cc2)CC1 [Pimozide]
[25]
  inhibition at 5 µM: 2.77%
[26]
  inhibition at 5 µM: 3.25%
[27]
  inhibition at 5 µM: 2.29%

## CCCn1cnc2c1c(=O)n(CCCCC(C)=O)c(=O)n2C [Propentofylline]
[16]
  inhibition at 5 µM: 1.26%
[17]
  inhibition at 5 µM: 2.2%
[18]
  inhibition at 5 µM: 0.327%

## N#Cc1cc2nc([O-])c([O-])nc2cc1[N+](=O)[O-].[Na+].[Na+] [CNQX disodium]
[10]
  mean: 0.7558
[11]
  Replicate_1: 2.8399
[12]
  Replicate_2: -1.328

## CC1(C)C(=O)N(CCN2CCC(C(=O)c3ccc(F)cc3)CC2)c2ccccc21.Cl [LY-310,762 hydrochloride]
[24]
  mean (LOPAC_screen_w_protease): 1.717
[8]
  Replicate_1 (LOPAC_screen_w_protease): 1.617
[9]
  Replicate_2 (LOPAC_screen_w_protease): 1.816

## O=c1onc2n1-c1cc(Br)ccc1OC2 [NS 2028]
  Replicate_1: 5.339
  Replicate_2: 3.612
  mean: 4.476

## OC[C@H]1O[C@@H](n2cnc3c(NC4CCCCC4)ncnc32)[C@H](O)[C@@H]1O [N6-Cyclohexyladenosine]
[24]
  mean (LOPAC_screen_w_protease): 1.471
[8]
  Replicate_1 (LOPAC_screen_w_protease): 2.337
[9]
  Replicate_2 (LOPAC_screen_w_protease): 0.606

## C[C@@H]1O[C@H](C[N+](C)(C)C)C[C@H]1O.[Cl-] (racemic) [(±)-Muscarine chloride]
[13]
  mean: 5.0033
[14]
  Replicate_1: 6.646
[15]
  Replicate_2: 3.361

## Cl.O=C(CCCN1CCC2(CC1)C(=O)N(CCc1ccc(N=C=S)cc1)CN2c1ccccc1)c1ccc(F)cc1
[13]
  mean: 5.051
[14]
  Replicate_1: 5.654
[15]
  Replicate_2: 4.448

## CN(Cc1cnc2nc(N)nc(N)c2n1)c1ccc(C(=O)N[C@@H](CCC(=O)O)C(=O)O)cc1 [(-)Amethopterin]
[7]
  mean (LOPAC_screen_w_protease): 2.014
[8]
  Replicate_1 (LOPAC_screen_w_protease): 2.356
[9]
  Replicate_2 (LOPAC_screen_w_protease): 1.671

## NCCCCN=C(N)N [Agmatine sulfate]
[16]
  inhibition at 5 µM: 1.26%
[17]
  inhibition at 5 µM: 0.743%
[18]
  inhibition at 5 µM: 1.77%

## CSc1ccc(C(=O)c2[nH]c(=O)[nH]c2C)cc1 [Enoximone]
[19]
  inhibition at 5 µM: 7.98%
[20]
  inhibition at 5 µM: 10%
[21]
  inhibition at 5 µM: 9.01%

## Cc1nc2n(c(=O)c1CCN1CCC(c3noc4cc(F)ccc34)CC1)CCCC2 [Risperidone]
[16]
  inhibition at 5 µM: 0.962%
[17]
  inhibition at 5 µM: 1.3%
[18]
  inhibition at 5 µM: 0.627%

## Cn1cnc([N+](=O)[O-])c1Sc1ncnc2nc[nH]c12 [Azathioprine]
  mean (LOPAC_screen_w_protease): 1.638
read-out: Replicate_1 (LOPAC_screen_w_protease)
  inhibition at 5 µM: 1.71%
read-out: Replicate_2 (LOPAC_screen_w_protease)
  inhibition at 5 µM: 1.57%

## Br.COc1ccc2c(c1)[C@]13CCCC[C@@H]1[C@H](C2)N(C)CC3.O
[7]
  mean (LOPAC_screen_w_protease): 1.973
[8]
  Replicate_1 (LOPAC_screen_w_protease): 1.427

## Cc1cc(N)c2ccccc2[n+]1CCCCCCCCCCCCCC[n+]1c(C)cc(N)c2ccccc21.[I-].[I-] [Dequalinium analog, C-14 linker]
Sheet LOPAC_screen_w_protease, primary screen at 5 µM, mean of two replicates
  mean (LOPAC screen with protease): 11.1281
Sheet LOPAC_screen_w_protease, primary screen at 5 µM, replicate 1
  Replicate_1 (LOPAC screen with protease): 10.1675
Sheet LOPAC_screen_w_protease, primary screen at 5 µM, replicate 2
  Replicate_2 (LOPAC screen with protease): 12.0887
